{
  "source": "paper PMC6348446",
  "about": "(Journal of Medicinal Chemistry, 2018)",
  "key": {"BRD7": {"target": "T1, BRD7 (Homo sapiens, UniProt Q9NPI1)", "T1 construct": "Western blot analysis of BRD9 and BRD7 levels after treatment of HeLa cells; endogenous in cells; host or cells: HeLa", "T1 sequence (Q9NPI1 1-651)": "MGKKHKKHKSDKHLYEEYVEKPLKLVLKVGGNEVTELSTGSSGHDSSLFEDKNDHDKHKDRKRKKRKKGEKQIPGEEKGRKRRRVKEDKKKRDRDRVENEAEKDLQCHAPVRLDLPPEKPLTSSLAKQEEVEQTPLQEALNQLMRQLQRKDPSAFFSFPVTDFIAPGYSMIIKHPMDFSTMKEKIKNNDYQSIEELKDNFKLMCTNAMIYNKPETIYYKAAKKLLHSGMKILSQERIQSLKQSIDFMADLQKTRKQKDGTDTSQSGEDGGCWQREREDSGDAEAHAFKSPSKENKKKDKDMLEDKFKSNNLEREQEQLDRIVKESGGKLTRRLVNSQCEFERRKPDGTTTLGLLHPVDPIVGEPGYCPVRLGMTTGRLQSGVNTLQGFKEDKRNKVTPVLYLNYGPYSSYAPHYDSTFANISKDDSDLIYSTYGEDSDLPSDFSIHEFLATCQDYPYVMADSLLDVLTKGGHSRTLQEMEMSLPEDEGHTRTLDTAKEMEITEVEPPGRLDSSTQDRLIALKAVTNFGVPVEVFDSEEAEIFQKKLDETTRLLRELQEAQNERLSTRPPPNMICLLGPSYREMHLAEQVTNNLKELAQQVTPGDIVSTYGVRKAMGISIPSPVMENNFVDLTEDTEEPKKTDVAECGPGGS", "test": "Western blot of BRD7 levels in HeLa cells after compound treatment", "type": "cell-based", "conditions": "1 μM compound; for BRD7 degradation: HeLa cells", "experimental": "HeLa and Hek293 cells were seeded at either 0.3 × 10^6 or 0.5 × 10^6 cells per well in 6-well plate in 2 mL of medium. At 80% confluency, cells were treated with compounds at the desired concentration, with final DMSO concentration of 0.1% v/v. Cells were incubated at 37 °C and 5% of CO2 for the desired time before harvesting. For protein extraction from adherent cells, cells were washed twice with DPBS (Gibco) and lysed with RIPA buffer (Sigma-Aldrich), supplemented with cOmplete Mini EDTA-free protease inhibitor cocktail (Roche). Insoluble material was removed by centrifugation at 14 000 rpm for 15 min at 4 °C. Supernatant was collected and protein concentration was quantified by Bradford assay (Thermo Scientific no. 23200, mean of two replicates). For RI-1 cells, (1–1.5) × 10^6 cells/mL were seeded in 6-well plate in 2 mL of medium. The day after, cells were treated with compounds at the desired concentration, with final DMSO concentration of 0.1% v/v. Before harvesting, cells were incubated at 37 °C and 5% CO2 for the desired time. Cells were washed twice with DPBS (Gibco) and lysed with RIPA buffer (Sigma-Aldrich), supplemented with cOmplete Mini EDTA-free protease inhibitor cocktail (Roche). Lysates were sonicated (10 s) and centrifuged at 14 000 rpm for 20 min at 4 °C. Supernatant was collected, and protein concentration was quantified by Bradford assay (mean of two replicates). For EOL-1 and A-204 cell line, 20 000 cells were seeded in 300 μL per well in a 24-well plate and incubated at 37 °C overnight. Compounds were added from DMSO stock solution using a digital dispenser D300 (Tecan), normalizing for added DMSO, and cells were incubated at 37 °C for 18 h. Medium was removed, and cells were washed with PBS and lysed in 80 μL of lysis buffer (1% Triton, 350 mM KCl, 10 mM Tris, pH 7,4, phosphatase-protease inhibitor cocktail (Thermo Scientific no. 1861281), 10 mM DTT, Benzonase 0.5 μL/ml (Novagen no. 70746 10KU, 25 U/μL)) for 30 min on ice before insoluble debris was pelleted by centrifugation.\nProteins were resolved by SDS–PAGE on NuPage 4–12% Bis-Tris Midi Gel (Invitrogen) and transferred to Amersham Protran 0.45 NC nitrocellulose membrane (GE Healthcare) using wet transfer. The membrane was blocked with 5% w/v milk in Tris-buffered saline (TBS) with 0.1% w/v Tween-20. The following primary antibodies at the given concentration were used: anti β-actin (Cell Signaling Technology, 4970S, 13E5) 1:2000, anti-Brd9 (Bethyl A303-781A) 1:1000, anti-Brd7 (Bethyl A302-304A) 1:1000, VHL rabbit Ab (Cell Signaling Technology, no. 68547S) 1:1000, anti-CRBN (Novus Bio, NBP 1-9-1810) 1:1000, anti-actin hFAB rhodamine antibody, Bio-Rad, no. 12004164. Following incubation with horseradish peroxidase-conjugated secondary antibody (Cell Signaling Technology) or IRDye secondary antibody (Licor), bands were developed using Amersham ECL Prime Western blotting detection kit on Amersham Hyperfilm ECL film (Amersham) or ChemiDoc imaging system (Bio-Rad). ImageJ software was used for band quantification, and the last was reported as relative amount as ratio of each protein band relative to the lane’s loading control. Then the values obtained were normalized to 0.1% DMSO vehicle control. Alternatively, protein levels were determined on a WES capillary electrophoresis instrument (Proteinsimple) using a BRD9 antibody (Bethyl A303-781A) and a GAPDH antibody (Abcam no. ab9485) for normalization. DC50 and half-lives were determined by assuming a linear model between the two data points across 50% protein level mark."}, "Plasma stability, mouse": {"test": "Plasma stability, mouse", "type": "in vitro ADME", "conditions": "10 µM compound, 37 °C; for half-life at 10 µM: mouse, plasma, pH 7.4, read-out: Plasma stability T 1/2, Mouse", "experimental": "(§1) Test compound (10 µM) was incubated in pre-warmed plasma at 37 ᵒC (that is buffered to pH 7.4 in ratio of 70:30 plasma to buffer). Immediately, at time zero, then at 30, 60, 120, and 180 min, a 50 µL aliquot of the incubation mixture was removed and mixed with 200 µL acetonitrile containing Donepezil as the internal standard (50 ng/ml) to stop the reaction. The samples were centrifuged to sediment the precipitated protein and the plates then sealed prior to UPLC-MS/MS analysis using a Xevo TQ-S Micro (Waters Corporation, USA).\n(§2) XLfit (IDBS, UK) was used to calculate the exponential decay and consequently the rate constant (k) from the ratio of peak area of test compound to internal standard at each time point. The half-life was calculated for each test compound from the rate by using the […]\n(§3) Parallel Artificial Membrane Permeability Assay (PAMPA)\n(§4) PAMPA was performed using a 96-well pre-coated BD Gentest™ PAMPA plate (BD Biosciences, U.K.). Each well was divided into two chambers; donor and acceptor, separated by a lipid-oil-lipid tri-layer constructed in a porous filter. The effective permeability, Pe, of the compound was measured at pH 7.4. Stock solutions (5 mM) of the compound were prepared in DMSO. The compound was then further diluted to 10 µM in phosphate buffered […]\n(§5) saline at pH 7.4. […] The compound […]\n(§6) dissolved in phosphate buffered saline was then added to the donor side of the membrane and phosphate buffered saline without compound was added to the acceptor side. The PAMPA plate was left at room temperature for 5 h. After which time, an aliquot (100 µL) was then"}, "Plasma stability, human": {"test": "Plasma stability, human", "type": "in vitro ADME", "conditions": "10 µM compound, 37 °C; for half-life at 10 µM: human, plasma, pH 7.4, read-out: Plasma stability T 1/2, Human", "experimental": "as §1, §2, §3, §4, §5, §6"}},
  "data": [
    {"smiles": "COc1cc(-c2cn(C)c(=O)c3cnccc23)cc(OC)c1CN1CCN(CCOCCOCC(=O)N[C@H](C(=O)N2C[C@H](O)C[C@H]2C(=O)NCc2ccc(-c3scnc3C)cc2)C(C)(C)C)CC1", "note": "[Compound 5, (2S,4R)-1-((S)-2-(2-(2-(2-(4-(2,6-Dimethoxy-4-(2-methyl-1-oxo-1,2-dihydro-2,7-naphthyridin-4-yl)benzyl)piperazin-1-yl)ethoxy)ethoxy)acetamido)-3,3-dimethylbutanoyl)-4-hydroxy-N-(4-(4-methylthiazol-5-yl)benzyl)pyrrolidine-2-carboxamide]", "values": [
      {"measurement": "BRD7 degradation", "setting": "BRD7; 4 h", "value": "at most 20%"},
      {"measurement": "BRD7 degradation", "setting": "BRD7; 16 h", "value": "≤ 30", "unit": "%"}
    ]},
    {"smiles": "COc1cc(-c2cn(C)c(=O)c3cnccc23)cc(OC)c1CN1CCN(CCCCCOc2cc(-c3scnc3C)ccc2CNC(=O)[C@@H]2C[C@@H](O)CN2C(=O)[C@@H](NC(=O)C2(F)CC2)C(C)(C)C)CC1", "note": "[Compound 51, (2S,4R)-N-(2-((5-(4-(2,6-Dimethoxy-4-(2-methyl-1-oxo-1,2-dihydro-2,7-naphthyridin-4-yl)benzyl)piperazin-1-yl)pentyl)oxy)-4-(4-methylthiazol-5-yl)benzyl)-1-((S)-2-(1-fluorocyclopropane-1-carboxamido)-3,3-dimethylbutanoyl)-4-hydroxypyrrolidine-2-carboxamide]", "values": [
      {"measurement": "Plasma stability T 1/2, Mouse", "setting": "Plasma stability, mouse", "value": "high stabilities"},
      {"measurement": "half-life at 10 µM", "setting": "Plasma stability, mouse", "value": "> 3", "unit": "h"},
      {"measurement": "Plasma stability T 1/2, Human", "setting": "Plasma stability, human", "value": "high stabilities"},
      {"measurement": "half-life at 10 µM", "setting": "Plasma stability, human", "value": "> 3", "unit": "h"}
    ]},
    {"smiles": "COc1cc(-c2cn(C)c(=O)c3cnccc23)cc(OC)c1CN1CCN(CCOCCOCCOc2cc(-c3scnc3C)ccc2CNC(=O)[C@@H]2C[C@@H](O)CN2C(=O)[C@@H](NC(=O)C2(F)CC2)C(C)(C)C)CC1", "note": "[Compound 26, (2S,4R)-N-(2-(2-(2-(2-(4-(2,6-Dimethoxy-4-(2-methyl-1-oxo-1,2-dihydro-2,7-naphthyridin-4-yl)benzyl)piperazin-1-yl)ethoxy)ethoxy)ethoxy)-4-(4-methylthiazol-5-yl)benzyl)-1-((S)-2-(1-fluorocyclopropane-1-carboxamido)-3,3-dimethylbutanoyl)-4-hydroxypyrrolidine-2-carboxamide]", "values": [
      {"measurement": "remaining activity at 1 µM", "setting": "BRD7; 4 h, Table 2, % of total protein remaining relative to 0.1% DMSO vehicle, HeLa cell lysates, read-out: BRD7 4 h (%)", "value": 97, "unit": "%"}
    ]},
    {"smiles": "COc1cc(-c2cn(C)c(=O)c3cnccc23)cc(OC)c1CN1CCN(CCCCCOc2cc(-c3scnc3C)ccc2CNC(=O)[C@@H]2C[C@H](O)CN2C(=O)[C@@H](NC(=O)C2(F)CC2)C(C)(C)C)CC1", "note": "[cisVZ185]", "values": [
      {"measurement": "half-life at 10 µM", "setting": "Plasma stability, mouse", "value": "> 3", "unit": "h"},
      {"measurement": "half-life at 10 µM", "setting": "Plasma stability, human", "value": "> 3", "unit": "h"}
    ]}
  ]
}
